Where two headings read alike, the source gives them in different places.
Assays:
stress ulcer = test: Stress ulcer (restraint and water immersion); format: in vivo, male Wistar rats; settings: Rattus norvegicus, po, 7 h, read-out: Inhibitory ratio of stress ulcer; for inhibition in vivo at 300 mg/kg: 0.5% CMC suspension; for inhibition in vivo: concentration of 1×10^-3 mole
Protocol: After male Wistar rats weighing about 170 g was fasted for 24 hours, the rats were restrained in a stress cage and dipped in water bath at 23° C. till chest of the animals. After 7 hours, the rats were killed and the stomach was isolated. Into the isolated stomach 10% formalin (8 ml) was poured and settled. The stomach was cut open at the greater curvature, and the length of each ulcer on the membrane was measured. Sum of the length of all ulcers was shown as ulcer index (UI). The test compound was orally administered to the rats before restraint in a stress cage in a dose of 300 mg/kg in the form of 0.5% CMC suspension in case of test compounds 3, 4, 6, 15 and 27 and in a concentration of 1×10^-3 mole in case of other test compounds. As a control, only the solvent (CMC solution) was administered likewise. The inhibitory ratio (%) of stress ulcer of the test compounds was calculated by the following equation: [formula]
(§1) In the table, the inhibitory ratio (%) was evaluated as follows: […]

[1] = tested on: indomethacin-induced ulcer; test: Indomethacin-induced ulcer; format: in vivo, male Wistar rats; settings: Rattus norvegicus, 5 h, oral, 30 minutes before indomethacin 20 mg/kg s.c., read-out: Inhibitory ratio of indomethacin-induced ulcer
Protocol: After male Wistar rats weighing about 160 g was fasted for 24 hours, indomethacin was subcutaneously administered to the rats in a dose of 20 mg/kg in the form of a suspension in a mixture of 0.5% CMC and a small amount of Tween 80 (i.e. polyoxyethylene sorbitan monooleate). After 5 hours, the rats were killed and the stomach was isolated. Into the isolated stomach 10% formalin (8 ml) was poured and settled. The stomach was cut open at the greater curvature, and the length of each ulcer on the membrane was measured, based on which results the inhibitory ratio of the indomethacin-induced ulcer of the test compounds was calculated in the same manner as in Pharmacological Test 2. The test compound was orally administered to the rats in a dose of 100 mg/kg in the form of 0.5% CMC suspension 30 minutes before the administration of indomethacin.
as §1

gastric juice secretion = test: Shay rat pylorus ligation method (gastric juice secretion-inhibiting activity); format: in vivo, male Wistar rats; settings: 4 hours after ligation; for inhibition in vivo at 100 mg/kg / inhibition in vivo at 200 mg/kg: Rattus norvegicus, 4 h; for inhibition in vivo at 200 mg/kg: sc, subcutaneous route
Protocol: The pharmacological activities of the compounds (1) were tested by a Shay rat pylorus ligation method (cf. H. Shay et al: Gastroenterol., Vol. 5, page 43, 1945) which is the most popular method for testing of gastric juice secretion-inhibiting activity. The test was carried out by using male Wistar rats, weighing about 170 g and fasting for 24 hours.
Test compounds were administered 30 minutes before the pylorus ligation in a dose of 100 mg/kg in subcutaneous route in case of test compounds 37, 38, 50, 51 and 52, in a dose of 200 mg/kg in subcutaneous route in case of test compounds 105 and 106 and in dose of 100 mg/kg in duodenal route in case of other test compounds, and the volume, total acidity and pepsin activity of the gastric juice were measured 4 hours after the ligation. As a control, a saline solution was administered instead of the test compound. The inhibitory ratio (%) of the test compounds were calculated when the inhibitory activities of the control were counted as zero (0).
as §1

[2] = Acute toxicity (LD50, p.o.); settings: rat, in vivo; oral, male Wistar rats
Protocol: The test compounds were orally administered to male Wistar rats, and the half lethal dose (LD50) was measured.

[3] = 100 mg/kg, duodenal route, star-marked compounds, read-out: Inhibitory ratio, total acidity
[4] = 100 mg/kg, duodenal route, star-marked compounds, read-out: Inhibitory ratio, volume of gastric juice
[5] = 100 mg/kg, duodenal route, star-marked compounds, read-out: Inhibitory ratio, pepsin activity
[6] = 100 mg/kg, duodenal route, read-out: Inhibitory ratio, volume of gastric juice
[7] = 100 mg/kg, duodenal route, read-out: Inhibitory ratio, pepsin activity
[8] = 100 mg/kg, duodenal route, read-out: Inhibitory ratio, total acidity
[9] = read-out: Inhibitory ratio, pepsin activity
[10] = read-out: Inhibitory ratio, total acidity
[11] = read-out: Inhibitory ratio, volume of gastric juice

Row | SMILES | inhibition in vivo at 100 mg/kg [1] [%] | inhibition in vivo (stress ulcer) [%] | LD50 [2] [mg/kg] | inhibition in vivo at 100 mg/kg (gastric juice secretion; [6]) [%] | other results
1 | Cn1nnnc1SCCCSC1CCCCC1 [Test compound 3, 1-Methyl-5-(3-cyclohexylthiopropyl)thio-1,2,3,4-tetrazole] | 30 to 60 |  |  |  | inhibition in vivo at 300 mg/kg (stress ulcer): > 60%; inhibition in vivo at 100 mg/kg (gastric juice secretion; [3]): > 60%; inhibition in vivo at 100 mg/kg (gastric juice secretion; [4]): > 60%
2 | Cn1nnnc1SCCCCCSc1nnnn1C [Test compound 5, 1-Methyl-5-[5-(1-methyl-1,2,3,4-tetrazol-5-yl)thiopentyl]thio-1,2,3,4-tetrazole] | > 60 | > 60 |  |  | inhibition in vivo at 100 mg/kg (gastric juice secretion; [5]): 30 to 60%; inhibition in vivo at 100 mg/kg (gastric juice secretion; [3]): > 60%; inhibition in vivo at 100 mg/kg (gastric juice secretion; [4]): > 60%
3 | CCSCCCSc1nnnn1C [Test compound 7, 1-Methyl-5-(3-ethylthiopropyl)thio-1,2,3,4-tetrazole] |  | > 60 | > 500 | > 50 | 
4 | CC(CSc1nnnn1C)CSc1nnnn1C [Test compound 9, 1-Methyl-5-[2-methyl-3-(1-methyl-1,2,3,4-tetrazol-5-yl)thiopropyl]thio-1,2,3,4-tetrazole] | > 60 |  |  |  | 
5 | Cn1nnnc1SCCCCCCSc1nnnn1C [Test compound 36, 1-Methyl-5-[6-(1-methyl-1,2,3,4-tetrazol-5-yl)thiohexyl]thio-1,2,3,4-tetrazole] |  | > 60 |  |  | Inhibitory ratio, volume of gastric juice (gastric juice secretion; 100 mg/kg, duodenal route): + +
6 | Cn1nnnc1SCCC[S+]([O-])c1ccccn1 (stereo not drawn) [Test compound 44, 3-(1-Methyl-1,2,3,4-tetrazol-5-yl)thiopropyl 2-pyridyl sulfoxide] |  | > 60 | > 500 | > 50 | 
7 | Cn1nnnc1SCCCC[S+]([O-])c1nnnn1C (stereo not drawn) [Test compound 46, 4-(1-Methyl-1,2,3,4-tetrazol-5-yl)thiobutyl 1-methyl-1,2,3,4-tetrazol-5-yl sulfoxide] |  | > 60 |  | 10 to 50 | 
8 | Cn1nnnc1SCCCC(=O)c1ccccc1 [Test compound 53, 1-Methyl-5-(3-benzoylpropyl)thio-1,2,3,4-tetrazole] | > 60 |  |  |  | 
9 | Cn1nnnc1SCCCC(=O)c1ccco1 [Test compound 55, 1-Methyl-5-[3-(2-furoyl)propyl]thio-1,2,3,4-tetrazole] |  | 30 to 60 |  | > 50 | inhibition in vivo at 100 mg/kg (gastric juice secretion; [7]): 10 to 50%; inhibition in vivo at 100 mg/kg (gastric juice secretion; [8]): > 50%
10 | Cn1nnnc1SCCCC(=O)Cc1ccccc1 [Test compound 57, 1-Methyl-5-(3-benzylcarbonylpropyl)thio-1,2,3,4-tetrazole] |  | > 60 |  | > 50 | inhibition in vivo at 100 mg/kg (gastric juice secretion; [7]): 10 to 50%; inhibition in vivo at 100 mg/kg (gastric juice secretion; [8]): 10 to 50%
11 | CC(=O)CSc1nnnn1C [Test compound 67] | > 60 |  | > 500 |  | 
12 | Cn1nnnc1SCCCC(=O)c1ccccn1 [Test compound 74, 1-Methyl-5-[3-(2-pyridyl)carbonylpropyl]thio-1,2,3,4-tetrazole] |  | > 60 |  | > 50 | 
13 | Cc1ncsc1C(=O)CCCSc1nnnn1C [Test compound 80, 1-Methyl-5-[3-(4-methyl-5-thiazolyl)carbonylpropyl]thio-1,2,3,4-tetrazole] |  | > 60 |  | > 50 | 
14 | CCN(CC)CCCSc1nnnn1C [Test compound 84, 1-Methyl-5-[3-(N,N-diethylamino)propyl]thio-1,2,3,4-tetrazole] | > 60 | > 60 |  | 10 to 50 | inhibition in vivo at 100 mg/kg (gastric juice secretion; [7]): 10 to 50%; inhibition in vivo at 100 mg/kg (gastric juice secretion; [8]): 10 to 50%
15 | Cn1nnnc1SCCCNC(=O)c1ccccc1 [Test compound 88, 1-Methyl-5-(3-benzoylaminopropyl)thio-1,2,3,4-tetrazole] |  | > 60 |  | > 50 | 
16 | CCN(CC)C(=O)CCCn1nnnc1C [Test compound 105, N,N-Diethyl-4-(5-methyl-1,2,3,4-tetrazol-1-yl)butyramide] | 30 to 60 | > 60 | > 500 |  | inhibition in vivo at 200 mg/kg (gastric juice secretion; [9]): 10 to 50%; inhibition in vivo at 200 mg/kg (gastric juice secretion; [10]): 10 to 50%; inhibition in vivo at 200 mg/kg (gastric juice secretion; [11]): 10 to 50%
17 | CCN(C(=O)CCCn1nnnc1C)C1CCCCC1 [Test compound 106, N-Ethyl-N-cyclohexyl-4-(5-methyl-1,2,3,4-tetrazol-1-yl)butyramide] | 30 to 60 |  | > 500 |  | inhibition in vivo at 200 mg/kg (gastric juice secretion; [9]): 10 to 50%; inhibition in vivo at 200 mg/kg (gastric juice secretion; [10]): 10 to 50%; inhibition in vivo at 200 mg/kg (gastric juice secretion; [11]): 10 to 50%
18 | Cn1nnnc1SCCCSc1ccccn1 [compound 2] |  | > 60 |  |  | inhibition in vivo at 100 mg/kg (gastric juice secretion; [5]): 30 to 60%; inhibition in vivo at 100 mg/kg (gastric juice secretion; [3]): > 60%; inhibition in vivo at 100 mg/kg (gastric juice secretion; [4]): > 60%
19 | Cc1nnc(SCCCSc2nnnn2C)o1 [compound 4] | > 60 |  | > 500 |  | inhibition in vivo at 300 mg/kg (stress ulcer): > 60%; inhibition in vivo at 100 mg/kg (gastric juice secretion; [5]): 30 to 60%; inhibition in vivo at 100 mg/kg (gastric juice secretion; [3]): > 60%; inhibition in vivo at 100 mg/kg (gastric juice secretion; [4]): > 60%
